{
  "source": "patent US20260209297A1",
  "about": "“ANTIMICROBIAL PEPTIDES AND MODIFICATIONS THEREOF” (priority 2022, published 2026)",
  "key": {"[1]": {"system": "Fusarium graminearum PH-1", "assay_type": "cell-based", "settings": "for F. graminearum PH-1 MIC Day 1: Fusarium graminearum PH-1, 96-well, resazurin viability"}, "[2]": {"system": "Botrytis cinerea T4", "assay_type": "cell-based"}, "[3]": {"system": "B. cinerea", "assay": "MIC antifungal assay in SFM culture media (with or without added salts)", "assay_type": "cell-based, Botrytis cinerea", "settings": "for antifungal activity relative to the wild-type GMA4C_AC control, B. cinerea: in vitro, low cationic conditions"}, "[4]": {"system": "F. graminearum", "assay_type": "cell-based, Fusarium graminearum", "settings": "in vitro, low cationic conditions"}, "[5]": {"system": "C. parapsilosis", "assay": "MIC, CLSI M27/M38, half-strength potato dextrose broth", "assay_type": "cell-based, Candida parapsilosis", "settings": "C. parapsilosis ATCC 22019; Table 8", "description": "(§1) MICs were determined at 24-72 hours."}, "[6]": {"system": "Fusarium (F. oxysporum)", "assay": "MIC, CLSI M27/M38, half-strength potato dextrose broth", "assay_type": "cell-based", "settings": "Table 8", "description": "as §1"}, "[7]": {"system": "Fusarium (F. solani)", "assay": "MIC, CLSI M27/M38, half-strength potato dextrose broth", "assay_type": "cell-based", "settings": "Fusarium F4 (F. solani); Table 8", "description": "as §1"}, "[8]": {"system": "Coccidioides sp.", "assay_type": "cell-based", "settings": "Table 8"}, "[9]": {"system": "Candida albicans", "settings": "for MIC values (μg/ml) 100%: Table 8"}, "[10]": {"system": "Candida auris", "settings": "for MIC values (μg/ml) 100%: Table 8"}, "[11]": {"system": "Aspergillus fumigatus"}, "[12]": {"system": "F. oxysporum", "assay": "MIC antifungal assay in SFM culture media", "assay_type": "cell-based", "settings": "in vitro, low cationic conditions"}, "[13]": {"system": "P. capsici", "assay": "MIC antifungal assay in SFM culture media", "assay_type": "cell-based", "settings": "in vitro, low cationic conditions"}, "[14]": {"system": "C. albicans", "assay": "Peptide or protein/Fluconazole combination MIC and FICI", "settings": "combination with Fluconazole"}, "[15]": {"system": "Tricophyton rubrum", "assay": "MIC against human nail pathogens", "settings": "isolate 23014; Table 13"}, "[16]": {"system": "Tricophyton metagrophytes", "assay": "MIC against human nail pathogens", "settings": "isolate 26103; Table 13"}},
  "note": "Where two headings read alike, the source gives them in different places. Positions of bridges follow the written chain, without caps; N, C: chain ends. Non-standard residues stand in square brackets, D forms with d. Residues, ends and D or L forms follow the SMILES beside them. No end group written: not given here. Dab = NCC[C@H](N)C(=O)O",
  "data": [
    {"compound": "C[C@@H]1[C@H](O)[C@@H](C)/C=C/C=C/C=C/C=C/C=C/C=C/C=C/[C@H](O[C@@H]2O[C@H](C)[C@@H](O)[C@H](N)[C@@H]2O)C[C@@H]2O[C@](O)(C[C@@H](O)C[C@@H](O)[C@H](O)CC[C@@H](O)C[C@@H](O)CC(=O)O[C@H]1C)C[C@H](O)[C@H]2C(=O)O", "note": "[Amphotericin-B, reference compound]", "values": [
      {"measurement": "MIC against F. graminearum", "setting": "[1]; F. graminearum PH-1, Example 7", "result": 6, "unit": "µM"},
      {"measurement": "F. graminearum PH-1 MIC Day 1", "setting": "[1]", "result": 6, "unit": "µM"},
      {"measurement": "MIC against B. cinerea", "setting": "[2]", "result": 3, "unit": "µM"}
    ]},
    {"compound": "CC[C@H](C)[C@H](NC(=O)[C@H](CCCNC(=N)N)NC(=O)[C@@H](NC(=O)[C@H](CS)NC(=O)[C@H](Cc1ccccc1)NC(=O)[C@H](CS)NC(=O)[C@H](CCCNC(=N)N)NC(=O)[C@H](CCCNC(=N)N)NC(=O)[C@H](CCCNC(=N)N)NC(=O)[C@H](Cc1ccccc1)NC(=O)CNC(=O)[C@H](CCCNC(=N)N)NC(=O)[C@H](CS)NC(=O)[C@H](CCCNC(=N)N)NC(=O)CNC(=O)CN)[C@@H](C)O)C(=O)N[C@@H](CS)C(N)=O", "note": "[GMA4C_V2A] (H-GGRCRGFRRRCFCTRIC-NH2; N-terminus assumed)", "values": [
      {"measurement": "antifungal activity relative to the wild-type GMA4C_AC control, B. cinerea", "setting": "[3]", "result": "two-fold reduction"},
      {"measurement": "antifungal activity relative to the wild-type GMA4C_AC control, F. graminearum", "setting": "[4]", "result": "two-fold reduction"},
      {"measurement": "MIC values (μg/ml) 100%", "setting": "[5]", "result": 8, "unit": "µg/mL"},
      {"measurement": "MIC values (μg/ml) 100%", "setting": "[6]; Fusarium F1 (F. oxysporum)", "result": 8, "unit": "µg/mL"},
      {"measurement": "MIC values (μg/ml) 100%", "setting": "[6]; Fusarium F2 (F. oxysporum)", "result": 16, "unit": "µg/mL"},
      {"measurement": "MIC values (μg/ml) 100%", "setting": "[7]", "result": 8, "unit": "µg/mL"},
      {"measurement": "MIC values (μg/ml) 100%", "setting": "[8]; Coccidioides sp. Cocci1", "result": 8, "unit": "µg/mL"},
      {"measurement": "MIC values (μg/ml) 100%", "setting": "[8]; Coccidioides sp. Cocci2", "result": 16, "unit": "µg/mL"},
      {"measurement": "MIC values (μg/ml) 100%", "setting": "[8]; Coccidioides sp. DI17-143", "result": 16, "unit": "µg/mL"},
      {"measurement": "MIC values (μg/ml) 100%", "setting": "[9]; Candida albicans ATCC 90028", "result": 16, "unit": "µg/mL"},
      {"measurement": "MIC values (μg/ml) 100%", "setting": "[9]; Candida albicans CA3", "result": 16, "unit": "µg/mL"},
      {"measurement": "MIC values (μg/ml) 100%", "setting": "[9]; Candida albicans SC5314", "result": 16, "unit": "µg/mL"},
      {"measurement": "MIC values (μg/ml) 100%", "setting": "[10]; Candida auris DI17-46", "result": 16, "unit": "µg/mL"},
      {"measurement": "MIC values (μg/ml) 100%", "setting": "[10]; Candida auris DI17-47", "result": 16, "unit": "µg/mL"},
      {"measurement": "MIC values (μg/ml) 100%", "setting": "[10]; Candida auris DI17-48", "result": 16, "unit": "µg/mL"},
      {"measurement": "MIC values (μg/ml) 100%", "setting": "[11]; Aspergillus fumigatus AF293, Table 8", "result": 32, "unit": "µg/mL"}
    ]},
    {"compound": "CC[C@H](C)[C@H](NC(=O)[C@H](CCCNC(=N)N)NC(=O)[C@@H](NC(=O)[C@@H](NC(=O)[C@H](Cc1ccccc1)NC(=O)[C@@H](NC(=O)[C@H](CCCNC(=N)N)NC(=O)[C@H](CCCNC(=N)N)NC(=O)[C@H](CCCNC(=N)N)NC(=O)[C@H](Cc1ccccc1)NC(=O)CNC(=O)[C@H](CCCNC(=N)N)NC(=O)[C@H](CS)NC(=O)[C@H](CCCNC(=N)N)NC(=O)CNC(=O)CN)C(C)C)C(C)C)[C@@H](C)O)C(=O)N[C@@H](CS)C(N)=O", "note": "[GMA4C_V3A] (H-GGRCRGFRRRVFVTRIC-NH2; N-terminus assumed)", "values": [
      {"measurement": "antifungal activity relative to the wild-type GMA4C_AC control, B. cinerea", "setting": "[3]", "result": "equivalent"},
      {"measurement": "antifungal activity relative to the wild-type GMA4C_AC control, F. graminearum", "setting": "[4]", "result": "equivalent"},
      {"measurement": "antifungal activity relative to the wild-type GMA4C_AC control, F. oxysporum", "setting": "[12]", "result": "equivalent"},
      {"measurement": "antifungal activity relative to the wild-type GMA4C_AC control, P. capsici", "setting": "[13]", "result": "equivalent"},
      {"measurement": "Candida albicans (33795) MIC", "setting": "[9]", "result": 2.8, "unit": "µM"},
      {"measurement": "Candida auris (38883) MIC", "setting": "[10]", "result": 5.6, "unit": "µM"},
      {"measurement": "MIC in μM Aspergillus fumigatus (36843)", "setting": "[11]", "result": 11.2, "unit": "µM"},
      {"measurement": "Interpretation", "setting": "[14]", "result": "Conclusion: GMA4C_v3 shows synergistic enhancement of antifungal activity against drug resistant C. albicans in combination with Fluconazole"}
    ]},
    {"compound": "N=C(N)NCCC[C@H](NC(=O)CNC(=O)[C@@H](N)Cc1ccccc1)C(=O)N[C@@H](CS)C(=O)N[C@@H](CCCNC(=N)N)C(=O)NCC(=O)N[C@@H](Cc1ccccc1)C(=O)N[C@@H](CCCNC(=N)N)C(=O)N[C@@H](CCCNC(=N)N)C(=O)N[C@@H](CCCNC(=N)N)C(=O)N[C@@H](CS)C(=O)N[C@@H](Cc1ccccc1)C(=O)N[C@@H](CS)C(=O)N[C@@H](Cc1c[nH]c2ccccc12)C(=O)N[C@@H](CCCNC(=N)N)C(=O)N[C@@H](Cc1c[nH]c2ccccc12)C(=O)N[C@@H](CS)C(N)=O", "note": "[GMA4C_V4A] (H-FGRCRGFRRRCFCWRWC-NH2; N-terminus assumed)", "values": [
      {"measurement": "fungal growth inhibition at 6 μM", "setting": "[3]; B. cinerea, in presence of 2 mM CaCl2, 6 μM", "result": "inhibit fungal growth"},
      {"measurement": "potency of activity relative to GMA4C_AC", "setting": "[3]; B. cinerea, in presence of 100 mM NaCl or 100 mM KCl", "result": 2, "unit": "fold"},
      {"measurement": "antifungal activity relative to the wild-type GMA4C_AC control, B. cinerea", "setting": "[3]", "result": "equivalent"},
      {"measurement": "antifungal activity relative to the wild-type GMA4C_AC control, F. graminearum", "setting": "[4]", "result": "equivalent"},
      {"measurement": "antifungal activity relative to the wild-type GMA4C_AC control, F. oxysporum", "setting": "[12]", "result": "equivalent"},
      {"measurement": "antifungal activity relative to the wild-type GMA4C_AC control, P. capsici", "setting": "[13]", "result": "equivalent"}
    ]},
    {"compound": "NCC[C@H](NC(=O)CNC(=O)[C@@H](N)Cc1ccccc1)C(=O)N[C@@H](CS)C(=O)N[C@@H](CCN)C(=O)NCC(=O)N[C@@H](Cc1ccccc1)C(=O)N[C@@H](CCN)C(=O)N[C@@H](CCN)C(=O)N[C@@H](CCN)C(=O)N[C@@H](CS)C(=O)N[C@@H](Cc1ccccc1)C(=O)N[C@@H](CS)C(=O)N[C@@H](Cc1c[nH]c2ccccc12)C(=O)N[C@@H](CCN)C(=O)N[C@@H](Cc1c[nH]c2ccccc12)C(=O)N[C@@H](CS)C(N)=O", "note": "[GMA4C_V5A, FG(Dab)C(Dab)GF(Dab)(Dab)(Dab)CFCW(Dab)WC-NH2] (H-FG[Dab]C[Dab]GF[Dab][Dab][Dab]CFCW[Dab]WC-NH2; N-terminus assumed)", "values": [
      {"measurement": "antifungal activity relative to the wild-type GMA4C_AC control, B. cinerea", "setting": "[3]", "result": "equivalent"},
      {"measurement": "antifungal activity relative to the wild-type GMA4C_AC control, F. graminearum", "setting": "[4]", "result": "equivalent"},
      {"measurement": "antifungal activity relative to the wild-type GMA4C_AC control, F. oxysporum", "setting": "[12]", "result": "equivalent"},
      {"measurement": "antifungal activity relative to the wild-type GMA4C_AC control, P. capsici", "setting": "[13]", "result": "equivalent"}
    ]},
    {"compound": "OeDef1_V3: OeDef1 variant, printed with SEQ ID NO: 769 in Table 13 (GACLKNRHSKHYGWFWYYRHCY-NH2; disulfide 3-21 (inferred))", "values": [
      {"measurement": "MIC in μM Aspergillus fumigatus (36843)", "setting": "[11]; isolate 36843, Table 13", "result": ">7.9", "unit": "µM"},
      {"measurement": "MIC in μM Tricophyton rubrum (23014)", "setting": "[15]", "result": 4.0, "unit": "µM"},
      {"measurement": "MIC in μM Tricophyton metagrophytes (26103)", "setting": "[16]", "result": 4.0, "unit": "µM"}
    ]},
    {"compound": "PD81.1.1: SEQ ID NO: 534 with N-terminal alanine; Pinus sylvestris wild-type defensin, expressed in Pichia pastoris (RMCKTPSGKFKGYCVSSTNCKNVCRTEGFPTGSCDFHVASRKCYCYKPC; N-terminal alanine added; listed as Pinus sylvestris)", "values": [
      {"measurement": "F. graminearum PH-1 MIC Day 1", "setting": "[1]", "result": 1.5, "unit": "µM"},
      {"measurement": "MIC against B. cinerea", "setting": "[2]", "result": 1, "unit": "µM"}
    ]}
  ]
}
